According to US12203089B2, “Plants having increased tolerance to herbicides” (BASF SE, priority 2015, dated 2025):

Tests used:
Assay type in all cases: in vivo
[1] = test system: Arabidopsis thaliana expressing AtCesA3_S983F_S1037F (SEQ ID 3); experiment: 48-well plate growth inhibition, T2 seeds, tolerance factor; conditions: based on IC50 values of growth inhibition, seven to ten days after seeding
Protocol: (§1) Transgenic Arabidopsis thaliana plants (T2) are assayed for improved tolerance to azine herbicides like e. g. 6-cyclopentyl-N4-(2,3,4,5,6-pentafluorophenyl)-1,3,5-triazine-2,4-diamine in 48-well plates. Therefore, T2 seeds are surface sterilized by stirring for 5 min in ethanol+water (70+30 by volume), rinsing one time with ethanol+water (70+30 by volume) and two times with sterile, deionized water. The seeds are resuspended in 0.1% agar dissolved in water (w/v) Four to five seeds per well are plated on solid nutrient medium consisting of half-strength murashige skoog nutrient solution, pH 5.8 (Murashige and Skoog (1962) Physiologia Plantarum 15: 473-497). Compounds are dissolved in dimethylsulfoxid (DMSO) and added to the medium prior solidification (final DMSO concentration 0.1%). Multi well plates are incubated in a growth chamber at 22° C., 75% relative humidity and 110 μmol Phot*m^−2*s^−1 with 14:10 h light:dark photoperiod. Growth inhibition is evaluated seven to ten days after seeding in comparison to wild type plants. Tolerance factors are calculated based on IC50 values of growth inhibition of transformed versus non-transformed Arabidopsis plants.

[2] = test system: Arabidopsis thaliana expressing AtCesA1_G1009D_G1013R (SEQ ID 1); experiment: as above; conditions: based on IC50 values of growth inhibition, seven to ten days after seeding
Protocol: as §1

[3] = test system: Arabidopsis thaliana expressing AtCesA1_wt (SEQ ID 1); experiment: as above; conditions: based on IC50 values of growth inhibition, seven to ten days after seeding
Protocol: as §1

[4] = test system: Arabidopsis thaliana expressing AtCesA3_S983F_S1040L (SEQ ID 3); experiment: as above; conditions: based on IC50 values of growth inhibition, seven to ten days after seeding
Protocol: as §1

[5] = test system: Arabidopsis thaliana expressing AtCesA3_wt (SEQ ID 3); experiment: as above; conditions: based on IC50 values of growth inhibition, seven to ten days after seeding
Protocol: as §1

[6] = test system: Brassica napus wildtype; experiment: 6-well plate injury test, seeds on vermiculite; conditions: 7 days after treatment
Protocol: (§2) Transgenic Brassica napus plants are assayed for improved tolerance to azine herbicides like e. g. 6-cyclopentyl-N4-(2,3,4,5,6-pentafluorophenyl)-1,3,5-triazine-2,4-diamine in 6-well plates. Therefore, 5-6 T1 seeds are sown on vermiculite and watered with half-strength murashige skoog nutrient solution, pH 5.8 (Murashige and Skoog (1962) Physiologia Plantarum 15: 473-497). Compounds are dissolved in dimethylsulfoxid (DMSO) and added to the medium (final DMSO concentration 0.1%). Multi well plates are incubated in a growth chamber at 22° C., 75% relative humidity and 110 μmol Phot*m^−2*s^−1 with 14: 10 h light: dark photoperiod. Growth inhibition is evaluated seven to ten days after seeding in comparison to wild type plants. Plant injury is rated on a scale of 0% to 100%, 0% being no injury and 100% being complete death.

[7] = test system: Arabidopsis thaliana expressing AtCesA1_P1010L_G1013R (SEQ ID 1); experiment: 48-well plate growth inhibition, T2 seeds, tolerance factor; conditions: based on IC50 values of growth inhibition, seven to ten days after seeding
Protocol: as §1

[8] = test system: Brassica napus expressing BnaAnng01240D (SEQ ID 20) variant S1041L; experiment: 6-well plate injury test, T1 seeds on vermiculite; conditions: 7 days after treatment
Protocol: as §2

## Cc1cccc(-n2nc(C(N)=O)nc2-c2ccccc2)c1 [1-(m-tolyl)-5-phenyl-1,2,4-triazole-3-carboxamide, reference compound]
[1]
  Relative tolerance rate as compared to non-transgenic Arabidopsis plants (non-transgenic = 1.0): 80
[2]
  Relative tolerance rate as compared to non-transgenic Arabidopsis plants (non-transgenic = 1.0): 25
[3]
  Relative tolerance rate as compared to non-transgenic Arabidopsis plants (non-transgenic = 1.0): 3
[4]
  Relative tolerance rate as compared to non-transgenic Arabidopsis plants (non-transgenic = 1.0): 100
[5]
  Relative tolerance rate as compared to non-transgenic Arabidopsis plants (non-transgenic = 1.0): 4

## NC(=O)c1nc(-c2ccccc2)n(-c2ccc(Cl)c(COCC(F)(F)C(F)(F)F)c2)n1 [1-[4-chloro-3-(2,2,3,3,3-pentafluoropropoxymethyl)phenyl]-5-phenyl-1,2,4-triazole-3-carboxamide, reference compound]
[6]; 10^-4M
  average phytotox value: 96%
[6]; 10^-5M
  average phytotox value: 93%
[6]; 10^-6M
  average phytotox value: 84%
[6]; 10^-7M
  average phytotox value: 41%
[6]; 10^-8M
  average phytotox value: 4%
[7]
  Relative tolerance rate as compared to non-transgenic Arabidopsis plants (non-transgenic = 1.0): 400
[8]; BnaAnng01240D S1041L event 1, 10^-4M
  average phytotox value: 95%
[8]; BnaAnng01240D S1041L event 1, 10^-5M
  average phytotox value: 85%
[8]; BnaAnng01240D S1041L event 1, 10^-6M
  average phytotox value: 80%
[8]; BnaAnng01240D S1041L event 1, 10^-7M
  average phytotox value: 10%
[8]; BnaAnng01240D S1041L event 1, 10^-8M
  average phytotox value: 0%
[8]; BnaAnng01240D S1041L event 2, 10^-4M
  average phytotox value: 90%
[8]; BnaAnng01240D S1041L event 2, 10^-5M
  average phytotox value: 90%
[8]; BnaAnng01240D S1041L event 2, 10^-6M
  average phytotox value: 90%
[8]; BnaAnng01240D S1041L event 2, 10^-7M
  average phytotox value: 0%
[8]; BnaAnng01240D S1041L event 2, 10^-8M
  average phytotox value: 0%
